Data taken from ChEMBL document CHEMBL1201861, “Genomics of Drug Sensitity in Cancer screening data, Wellcome Trust Sanger Institute”.

Legend:
Experiment in all cases: cells
[1] = test system: COLO-824; format: functional, cell-based, Homo sapiens; conditions: Homo sapiens, COLO-824
Description: SANGER: Inhibition of human COLO-824 cell growth in a cell viability assay.

[2] = test system: CW-2; format: functional, cell-based, Homo sapiens; conditions: Homo sapiens, CW-2;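 note: growth inhibition of CW-2 cells, read out by a cell viability assay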
Description: SANGER: Inhibition of human CW-2 cell growth in a cell viability assay.

[3] = test system: D-247MG; format: functional, cell-based; conditions: Homo sapiens
Description: SANGER: Inhibition of human D-247MG cell growth in a cell viability assay.

[4] = test system: DB; format: functional, cell-based, Homo sapiens; conditions: Homo sapiens, DB
Description: SANGER: Inhibition of human DB cell growth in a cell viability assay.

[5] = test system: DEL; format: functional, cell-based, Homo sapiens; conditions: Homo sapiens, DEL;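 note: growth inhibition of the human DEL cell line, read out with a cell viability assay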
Description: SANGER: Inhibition of human DEL cell growth in a cell viability assay.

[6] = test system: DMS-114; format: functional, cell-based, Homo sapiens; conditions: Homo sapiens, DMS-114
[7] = test system: DSH1; format: functional, cell-based; conditions: Homo sapiens;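 note: growth inhibition of human DSH1 cells, measured with a cell viability readout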
Description: SANGER: Inhibition of human DSH1 cell growth in a cell viability assay.

[8] = test system: ES3; format: functional, cell-based, Homo sapiens; conditions: Homo sapiens, ES3;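 note: growth inhibition of ES3 cells, read out with a cell viability assay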
Description: SANGER: Inhibition of human ES3 cell growth in a cell viability assay.

[9] = test system: ES8; format: functional, cell-based, Homo sapiens; conditions: Homo sapiens, ES8;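 note: growth inhibition of human ES8 cells, read out with a cell viability assay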
Description: SANGER: Inhibition of human ES8 cell growth in a cell viability assay.

[10] = test system: EOL1; format: functional, cell-based, Homo sapiens; conditions: Homo sapiens, EOL1;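 note: growth inhibition of EoL-1 cells, read out by a cell viability assay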
Description: SANGER: Inhibition of human EoL-1-cell cell growth in a cell viability assay.

[11] = test system: GB-1; format: functional, cell-based, Homo sapiens; conditions: Homo sapiens, GB-1;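 note: growth of GB-1 cells judged by a viability assay, IC50 marks the concentration inhibiting growth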
Description: SANGER: Inhibition of human GB-1 cell growth in a cell viability assay.

[12] = test system: GCIY; format: functional, cell-based, Homo sapiens; conditions: Homo sapiens, GCIY;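 note: growth inhibition of the human GCIY cell line, read out by a cell viability assay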
Description: SANGER: Inhibition of human GCIY cell growth in a cell viability assay.

[13] = test system: GR-ST; format: functional, cell-based, Homo sapiens; conditions: Homo sapiens, GR-ST
Description: SANGER: Inhibition of human GR-ST cell growth in a cell viability assay.

[14] = test system: GT3TKB; format: functional, cell-based, Homo sapiens; conditions: Homo sapiens, GT3TKB;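 note: growth inhibition of the cell line, read out with a cell viability assay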
Description: SANGER: Inhibition of human GT3TKB cell growth in a cell viability assay.

[15] = test system: HAL-01; format: functional, cell-based, Homo sapiens; conditions: Homo sapiens, HAL-01;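 note: growth inhibition of human HAL-01 cells, read out with a cell viability assay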
Description: SANGER: Inhibition of human HAL-01 cell growth in a cell viability assay.

[16] = test system: HH; format: functional, cell-based, Homo sapiens; conditions: Homo sapiens, HH
Description: SANGER: Inhibition of human HH cell growth in a cell viability assay.

[17] = test system: JAR; format: functional, cell-based, Homo sapiens; conditions: Homo sapiens, JAR;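 note: growth inhibition of human JAR cells determined with a cell viability assay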
Description: SANGER: Inhibition of human JAR cell growth in a cell viability assay.

[18] = test system: K5; format: functional, cell-based, Homo sapiens; conditions: Homo sapiens, K5
Description: SANGER: Inhibition of human K5 cell growth in a cell viability assay.

[19] = test system: KM-H2; format: functional, cell-based, Homo sapiens; conditions: Homo sapiens, KM-H2;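 note: growth inhibition of KM-H2 cells, read out by a cell viability assay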
Description: SANGER: Inhibition of human KM-H2 cell growth in a cell viability assay.

[20] = test system: LB2241-RCC; format: functional, cell-based, Homo sapiens; conditions: Homo sapiens, LB2241-RCC;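 note: cell viability assay measuring how strongly the cultured human renal carcinoma line is prevented from growing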
Description: SANGER: Inhibition of human LB2241-RCC cell growth in a cell viability assay.

[21] = test system: LS-123; format: functional, cell-based, Homo sapiens; conditions: Homo sapiens, LS-123
Description: SANGER: Inhibition of human LS-123 cell growth in a cell viability assay.

[22] = test system: LS-411N; format: functional, cell-based, Homo sapiens; conditions: Homo sapiens, LS-411N
[23] = test system: MC116; format: functional, cell-based, Homo sapiens; conditions: Homo sapiens, MC116;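 note: growth inhibition of MC116 cells, read out with a cell viability assay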
Description: SANGER: Inhibition of human MC116 cell growth in a cell viability assay.

[24] = test system: MHH-NB-11; format: functional, cell-based, Homo sapiens; conditions: Homo sapiens, MHH-NB-11;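 note: growth inhibition of human MHH-NB-11 cells, read out by a cell viability assay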
Description: SANGER: Inhibition of human MHH-NB-11 cell growth in a cell viability assay.

[25] = test system: MHH-PREB-1; format: functional, cell-based, Homo sapiens; conditions: Homo sapiens, MHH-PREB-1;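 note: cell viability assay measuring inhibition of proliferation of human MHH-PREB-1 cells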
Description: SANGER: Inhibition of human MHH-PREB-1 cell growth in a cell viability assay.

[26] = test system: MLMA; format: functional, cell-based, Homo sapiens; conditions: Homo sapiens, MLMA;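 note: growth inhibition of MLMA cells (human), determined through a cell viability readout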
Description: SANGER: Inhibition of human MLMA cell growth in a cell viability assay.

[27] = test system: NB6; format: functional, cell-based, Homo sapiens; conditions: Homo sapiens, NB6;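 note: growth inhibition of NB6 cells, read out by a cell viability assay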
Description: SANGER: Inhibition of human NB6 cell growth in a cell viability assay.

[28] = test system: NCI-H1650; format: functional, cell-based, Homo sapiens; conditions: Homo sapiens, NCI-H1650;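 note: growth inhibition of human NCI-H1650 cells measured by a cell viability assay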
Description: SANGER: Inhibition of human NCI-H1650 cell growth in a cell viability assay.

[29] = test system: NCI-H526; format: functional, cell-based, Homo sapiens; conditions: Homo sapiens, NCI-H526;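 note: growth inhibition of the human NCI-H526 cell line, measured by a cell viability assay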
Description: SANGER: Inhibition of human NCI-H526 cell growth in a cell viability assay.

[30] = test system: NMC-G1; format: functional, cell-based, Homo sapiens; conditions: Homo sapiens, NMC-G1;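 note: growth inhibition of the NMC-G1 cell line, measured with a cell viability read-out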
Description: SANGER: Inhibition of human NMC-G1 cell growth in a cell viability assay.

[31] = test system: RS4-11; format: functional, cell-based, Homo sapiens; conditions: Homo sapiens, RS4-11;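 note: growth inhibition of RS4-11 cells, read out by a cell viability assay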
Description: SANGER: Inhibition of human RS4-11 cell growth in a cell viability assay.

[32] = test system: SCC-15; format: functional, cell-based, Homo sapiens; conditions: Homo sapiens, SCC-15;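 note: growth inhibition of SCC-15 cells, read out with a cell viability assay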
Description: SANGER: Inhibition of human SCC-15 cell growth in a cell viability assay.

[33] = test system: SF-268; format: functional, cell-based, Homo sapiens; conditions: Homo sapiens, SF-268;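 note: growth inhibition of SF-268 cells determined with a cell viability assay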
Description: SANGER: Inhibition of human SF268 cell growth in a cell viability assay.

[34] = test system: SJSA-1; format: functional, cell-based, Homo sapiens; conditions: Homo sapiens, SJSA-1;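 note: growth inhibition of human SJSA-1 cells, read out through a cell viability measurement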
Description: SANGER: Inhibition of human SJSA-1 cell growth in a cell viability assay.

[35] = test system: SW872; format: functional, cell-based, Homo sapiens; conditions: Homo sapiens, SW872;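 note: growth inhibition of SW872 cells, read out by a viability assay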
Description: SANGER: Inhibition of human SW872 cell growth in a cell viability assay.

[36] = test system: SW982; format: functional, cell-based; conditions: Homo sapiens;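 note: growth inhibition of SW982 cells, read out with a cell viability assay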
Description: SANGER: Inhibition of human SW982 cell growth in a cell viability assay.

[37] = test system: 8-MG-BA; format: functional, cell-based, Homo sapiens; conditions: Homo sapiens, 8-MG-BA;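 note: growth inhibition of 8-MG-BA cells, read out with a cell viability assay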
Description: SANGER: Inhibition of human 8-MG-BA cell growth in a cell viability assay.

[38] = test system: A253 cell line; format: functional, cell-based, Homo sapiens; conditions: Homo sapiens, A253;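 note: growth inhibition of A253 cells, read out with a cell viability assay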
Description: SANGER: Inhibition of human A253 cell growth in a cell viability assay.

[39] = test system: A498; format: functional, cell-based, Homo sapiens; conditions: Homo sapiens, A498;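 note: growth inhibition of human A498 cells, read out with a cell viability assay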
Description: SANGER: Inhibition of human A498 cell growth in a cell viability assay.

[40] = test system: BB65-RCC; format: functional, cell-based, Homo sapiens; conditions: Homo sapiens, BB65-RCC;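 note: growth inhibition of the cell line, measured with a cell viability assay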
Description: SANGER: Inhibition of human BB65-RCC cell growth in a cell viability assay.

[41] = test system: BE-13; format: functional, cell-based, Homo sapiens; conditions: Homo sapiens, BE-13;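 note: growth inhibition of human BE-13 cells, measured with a cell viability assay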
Description: SANGER: Inhibition of human BE-13 cell growth in a cell viability assay.

[42] = test system: BT-474; format: functional, cell-based, Homo sapiens; conditions: Homo sapiens, BT-474
Description: SANGER: Inhibition of human BT-474 cell growth in a cell viability assay.

[43] = test system: C2BBe1; format: functional, cell-based, Homo sapiens; conditions: Homo sapiens, C2BBe1;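 note: growth inhibition of C2BBe1 cells, read out through a viability assay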
Description: SANGER: Inhibition of human C2BBe1 cell growth in a cell viability assay.

[44] = test system: TE-11; format: functional, cell-based; conditions: Homo sapiens;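 note: growth inhibition of human TE-11 cells, read out by a cell viability assay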
Description: SANGER: Inhibition of human TE-11 cell growth in a cell viability assay.

[45] = test system: TE-9; format: functional, cell-based, Homo sapiens; conditions: Homo sapiens, TE-9;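 note: cell growth inhibition, measured with a cell viability readout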
Description: SANGER: Inhibition of human TE-9 cell growth in a cell viability assay.

[46] = test system: TGBC24TKB; format: functional, cell-based; conditions: Homo sapiens;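 note: growth inhibition of human TGBC24TKB cells, read out with a cell viability assay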
Description: SANGER: Inhibition of human TGBC24TKB cell growth in a cell viability assay.

[47] = test system: no-10; format: functional, cell-based, Homo sapiens; conditions: Homo sapiens;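 note: growth inhibition of no-10 cells, read out with a cell viability assay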
Description: SANGER: Inhibition of human no-10 cell growth in a cell viability assay.

[48] = test system: COLO-320-HSR; format: functional, cell-based, Homo sapiens; conditions: Homo sapiens, COLO-320-HSR;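 note: growth inhibition of COLO-320-HSR cells, determined with a cell viability assay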
Description: SANGER: Inhibition of human COLO-320-HSR cell growth in a cell viability assay.

[49] = test system: COLO-684; format: functional, cell-based, Homo sapiens; conditions: Homo sapiens, COLO-684
Description: SANGER: Inhibition of human COLO-684 cell growth in a cell viability assay.

[50] = test system: LB1047-RCC; format: functional, cell-based, Homo sapiens; conditions: Homo sapiens, LB1047-RCC;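 note: inhibition of cell growth, determined with a cell viability assay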
Description: SANGER: Inhibition of human LB1047-RCC cell growth in a cell viability assay.

## O=C1NC(=O)c2c1c(-c1ccccc1Cl)cc1[nH]c3ccc(O)cc3c21
[1]
  IC50: > 2000 nM
[2]
  IC50: > 2000 nM
[3]
  IC50: > 2000 nM
[4]
  IC50: 1300 nM
[5]
  IC50: 485 nM
[6]
  IC50: > 2000 nM
[7]
  IC50: > 2000 nM
[8]
  IC50: > 2000 nM
[9]
  IC50: > 2000 nM
[10]
  IC50: > 2000 nM
[11]
  IC50: > 2000 nM
[12]
  IC50: > 2000 nM
[13]
  IC50: 975 nM
[14]
  IC50: > 2000 nM
[15]
  IC50: 1160 nM
[16]
  IC50: 1640 nM
[17]
  IC50: > 2000 nM
[18]
  IC50: > 2000 nM
[19]
  IC50: > 2000 nM
[20]
  IC50: 394 nM
[21]
  IC50: > 2000 nM
[22]
  IC50: > 2000 nM
[23]
  IC50: > 2000 nM
[24]
  IC50: > 2000 nM
[25]
  IC50: 523 nM
[26]
  IC50: 541 nM
[27]
  IC50: > 2000 nM
[28]
  IC50: > 2000 nM
[29]
  IC50: > 2000 nM
[30]
  IC50: > 2000 nM
[31]
  IC50: 898 nM
[32]
  IC50: > 2000 nM
[33]
  IC50: > 2000 nM
[34]
  IC50: > 2000 nM
[35]
  IC50: > 2000 nM
[36]
  IC50: > 2000 nM
[37]
  IC50: 1550 nM
[38]
  IC50: > 2000 nM
[39]
  IC50: > 2000 nM
[40]
  IC50: 1420 nM
[41]
  IC50: > 2000 nM
[42]
  IC50: > 2000 nM
[43]
  IC50: > 2000 nM
[44]
  IC50: > 2000 nM
[45]
  IC50: > 2000 nM
[46]
  IC50: > 2000 nM
[47]
  IC50: > 2000 nM
[48]
  IC50: 1820 nM
[49]
  IC50: > 2000 nM

## NC(=O)Nc1cc(-c2cccc(F)c2)sc1C(=O)N[C@H]1CCCNC1 [AZD-7762]
[1]
  IC50: > 2000 nM
[2]
  IC50: > 2000 nM
[3]
  IC50: > 2000 nM
[4]
  IC50: 1700 nM
[5]
  IC50: 45.9 nM
[6]
  IC50: > 2000 nM
[7]
  IC50: 1690 nM
[8]
  IC50: 102 nM
[9]
  IC50: 99.2 nM
[10]
  IC50: < 7.81 nM
[11]
  IC50: 1380 nM
[12]
  IC50: 1390 nM
[13]
  IC50: 178 nM
[14]
  IC50: 1490 nM
[15]
  IC50: 210 nM
[16]
  IC50: 708 nM
[17]
  IC50: 232 nM
[18]
  IC50: 941 nM
[19]
  IC50: 1220 nM
[50]
  IC50: 60.2 nM
[20]
  IC50: 61 nM
[21]
  IC50: 1810 nM
[22]
  IC50: 376 nM
[23]
  IC50: 257 nM
[24]
  IC50: 390 nM
[25]
  IC50: 34.4 nM
[26]
  IC50: 28.5 nM
[27]
  IC50: 985 nM
[28]
  IC50: 1040 nM
[29]
  IC50: 1540 nM
[30]
  IC50: 986 nM
[31]
  IC50: 203 nM
[32]
  IC50: > 2000 nM
[33]
  IC50: 881 nM
[34]
  IC50: 417 nM
[35]
  IC50: > 2000 nM
[36]
  IC50: 784 nM
[37]
  IC50: 258 nM
[39]
  IC50: 1730 nM
[40]
  IC50: 271 nM
[41]
  IC50: 201 nM
[42]
  IC50: > 2000 nM
[43]
  IC50: 689 nM
[44]
  IC50: 453 nM
[45]
  IC50: 1630 nM
[46]
  IC50: 165 nM
[47]
  IC50: > 2000 nM
[48]
  IC50: 1000 nM
[49]
  IC50: 294 nM

## CN(NC(=O)CC(=O)NN(C)C(=S)c1ccccc1)C(=S)c1ccccc1 [ELESCLOMOL]
[1]
  IC50: 71.8 nM
[2]
  IC50: > 200 nM
[3]
  IC50: 24.7 nM
[4]
  IC50: 141 nM
[5]
  IC50: 19.2 nM
[6]
  IC50: 9.43 nM
[7]
  IC50: 23.3 nM
[8]
  IC50: 5.79 nM
[9]
  IC50: 1.32 nM
[10]
  IC50: 62 nM
[11]
  IC50: 6.71 nM
[12]
  IC50: > 200 nM
[13]
  IC50: > 200 nM
[14]
  IC50: 16 nM
[15]
  IC50: 128 nM
[16]
  IC50: > 200 nM
[17]
  IC50: 5.97 nM
[18]
  IC50: 7 nM
[19]
  IC50: > 200 nM
[50]
  IC50: 10.7 nM
[20]
  IC50: 56.4 nM
[21]
  IC50: 48.5 nM
[22]
  IC50: 102 nM
[23]
  IC50: > 200 nM
[24]
  IC50: 69.1 nM
[25]
  IC50: 11.5 nM
[26]
  IC50: 13.6 nM
[27]
  IC50: 142 nM
[28]
  IC50: 30.4 nM
[29]
  IC50: > 200 nM
[30]
  IC50: 20.4 nM
[31]
  IC50: > 200 nM
[32]
  IC50: 25.6 nM
[33]
  IC50: 12.9 nM
[34]
  IC50: 12.3 nM
[35]
  IC50: > 200 nM
[36]
  IC50: 7.44 nM
[37]
  IC50: 9.14 nM
[39]
  IC50: 46.5 nM
[40]
  IC50: 24.2 nM
[41]
  IC50: > 200 nM
[42]
  IC50: 19.2 nM
[43]
  IC50: 103 nM
[44]
  IC50: 46.1 nM
[45]
  IC50: 117 nM
[46]
  IC50: 12.9 nM
[47]
  IC50: > 200 nM
[48]
  IC50: > 200 nM
[49]
  IC50: 9.21 nM
